From publication PMC4657098, “A Review of the Updated Pharmacophore for the Alpha 5 GABA(A) Benzodiazepine Receptor Model” (International Journal of Medicinal Chemistry, 2015)
Where “and” joins values, the source holds several entries; their conditions need not be identical. Equal values may be shown once. Read-outs that look alike come from different tables or passages of the source.

Experiments:
α1β3γ2 GABAA/BzR = α1β3γ2 GABAA/BzR (Homo sapiens, UniProt P14867+P18507); assay: Competition binding to HEK cell membranes, α1β3γ2; design: expressed in transfected cells
α2β3γ2 GABAA/BzR = α2β3γ2 GABAA/BzR (Homo sapiens, UniProt P18507+P47869); assay: Competition binding to HEK cell membranes, α2β3γ2; design: expressed in transfected cells
α3β3γ2 GABAA/BzR = α3β3γ2 GABAA/BzR (Homo sapiens, UniProt P18507+P34903); assay: Competition binding to HEK cell membranes, α3β3γ2; design: expressed in transfected cells
α5β3γ2 GABAA/BzR = α5β3γ2 GABAA/BzR (Homo sapiens, UniProt P18507+P31644); assay: Competition binding to HEK cell membranes, α5β3γ2; design: expressed in transfected cells
α6β3γ2 GABAA/BzR = α6β3γ2 GABAA/BzR (Homo sapiens, UniProt P18507+Q16445); assay: Competition binding to HEK cell membranes, α6β3γ2; design: expressed in transfected cells
α4β3γ2 GABAA/BzR = target: T1, α4β3γ2 GABAA/BzR (Homo sapiens, UniProt P18507+P48169); assay: biochemical; type: binding; conditions: read-out: Ki α4
T1 construct: expressed in transfected cells; host or cells: LTK cells (given for XLi-093 only)

Structure (SMILES) | Ki (α1β3γ2 GABAA/BzR; read-out: Ki α1) | Ki (α2β3γ2 GABAA/BzR; read-out: Ki α2) | Ki (α3β3γ2 GABAA/BzR; read-out: Ki α3) | Ki (α5β3γ2 GABAA/BzR; read-out: Ki α5) | Ki (α6β3γ2 GABAA/BzR; read-out: Ki α6) | other results
CC(C)(C)OC(=O)c1ncn2c1[C@@H]1CCCN1C(=O)c1cc(-c3ccco3)ccc1-2 [JYI-06] | 16.5 nM | 5.48 nM | 5000 nM | 12.6 nM | 5000 nM | 
O=C(OCC(F)(F)F)c1ncn2c1CN=C(c1ccccc1F)c1cc(-c3ccco3)ccc1-2 [JYI-54] | 2.89 nM | 172 nM | 6.7 nM | 57 nM | 1890 nM | 
C#Cc1ccc2c(c1)C(c1ccccc1F)=NCc1c(C(=O)OCC(F)(F)F)ncn1-2 [JYI-59] | 1.08 nM | 2.6 nM | 11.8 nM | 11.5 nM | 5000 nM | 
C#Cc1ccc2c(c1)C(c1ccccc1F)=NCC(=O)N2 [JYI-60] | 3.73 nM | 1.64 nM | 4.3 nM | 1.7 nM | 5000 nM | 
Cc1nnc2n1-c1ccc(Br)cc1C(c1ccccc1F)=NC2 [JYI-64 (C17H12N4FBr)] | 0.305 nM | 1.11 nM | 0.62 nM | 0.87 nM | 5000 nM | 
Cc1nnc2n1-c1ccc(Br)cc1C(c1ccccc1F)=NC2 [JYI-64] | 0.305 nM | 1.11 nM | 0.62 nM | 0.87 nM | 5000 nM | 
c1ccc2c(c1)[nH]c1cnc3c4cccnc4[nH]c3c12 [LJD-III-15E] | 1.93 nM | 14 nM | 19 nM | 70.8 nM | 1000 nM | 
c1ccc2c(c1)[nH]c1c2ncc2[nH]c3ccccc3c21 [MLT-I-70] | 1.1 nM | 1.2 nM | 1.1 nM | 40.3 nM | 1000 nM | 
Fc1ccc2c(c1)[nH]c1c2ncc2[nH]c3ccccc3c21 [MLT-II-16] | 5.05 nM | 10.4 nM | 18.4 nM | 260 nM | 10000 nM | 
Oc1ccc2c(c1)[nH]c1c2ncc2[nH]c3ccccc3c21 [MLT-II-34] | 7.04 nM | 15.9 nM | 22.3 nM | 158 nM | 1000 nM | 
O=C(OC(C(F)(F)F)C(F)(F)F)c1ncn2c1C1CCCN1C(=O)c1ccccc1-2 (centres unmarked) [MMB-III-18] |  | 140 nM | 78 nM | 14 nM |  | Ki (α4β3γ2 GABAA/BzR): 3.5 µM
CCCC(=O)c1cc2c(cn1)[nH]c1ccccc12 [MSA-IV-35] | 2.1 nM | 16 nM | 21 nM | 995 nM | 3000 nM | 
O=C1C2C=Nc3ccccc3C2=NN1c1ccccc1 (centres unmarked) [QH-II-090 (CGS-8216), reference compound] |  |  |  |  |  | Ki (α1β3γ2 GABAA/BzR; Ki α1): 0.13 nM and 0.05 nM; Ki (α2β3γ2 GABAA/BzR; Ki α2): 0.08 nM; Ki (α3β3γ2 GABAA/BzR; Ki α3): 0.12 nM; Ki (α5β3γ2 GABAA/BzR; Ki α5): 0.25 nM; Ki (α6β3γ2 GABAA/BzR; Ki α6): 46 nM and 17 nM
O=c1c2c[nH]c3ccccc3c-2nn1-c1ccccc1 [QH-II-090] | 0.05 nM | 0.08 nM | 0.12 nM | 0.25 nM | 17 nM | 
C#Cc1ccc2c(c1)C(=O)N(C)Cc1c(C(=O)OC(C)(C)C)ncn1-2 [RY-024] | 26.9 nM | 26.3 nM | 18.7 nM | 0.4 nM | 5.1 nM | 
CCOC(=O)c1ncoc1-c1ncn2c1C1CCN1C(=O)c1cc(Br)ccc1-2 (centres unmarked) [RY-062 (12)] |  |  |  |  |  | Ki (α1β3γ2 GABAA/BzR; Figure 5, read-out: Ki α1): > 1000 nM; Ki (α2β3γ2 GABAA/BzR; Figure 5, read-out: Ki α2): > 1000 nM; Ki (α3β3γ2 GABAA/BzR; Figure 5, read-out: Ki α3): > 500 nM; Ki (α5β3γ2 GABAA/BzR; Figure 5, read-out: Ki α5): 172 nM; Ki (α6β3γ2 GABAA/BzR; Figure 5, read-out: Ki α6): > 2000 nM
CCOC(=O)c1ncoc1-c1ncn2c1C1CCN1C(=O)c1cc(C#C[Si](C)(C)C)ccc1-2 (centres unmarked) [RY-068 (11)] |  |  |  |  |  | Ki (α1β3γ2 GABAA/BzR; Figure 5, read-out: Ki α1): > 500 nM; Ki (α2β3γ2 GABAA/BzR; Figure 5, read-out: Ki α2): 877 nM; Ki (α3β3γ2 GABAA/BzR; Figure 5, read-out: Ki α3): 496 nM; Ki (α5β3γ2 GABAA/BzR; Figure 5, read-out: Ki α5): 37 nM; Ki (α6β3γ2 GABAA/BzR; Figure 5, read-out: Ki α6): > 1000 nM
C#Cc1ccc2c(c1)C(=O)N1CCC1c1c(-c3ocnc3C(=O)OCC)ncn1-2 (centres unmarked) [RY-069 (13)] |  |  |  |  |  | Ki (α1β3γ2 GABAA/BzR; Figure 5, read-out: Ki α1): 692 nM; Ki (α2β3γ2 GABAA/BzR; Figure 5, read-out: Ki α2): 622 nM; Ki (α3β3γ2 GABAA/BzR; Figure 5, read-out: Ki α3): 506 nM; Ki (α5β3γ2 GABAA/BzR; Figure 5, read-out: Ki α5): 19 nM; Ki (α6β3γ2 GABAA/BzR; Figure 5, read-out: Ki α6): > 1000 nM
C#Cc1ccc2c(c1)C(=O)N1CCC1c1c(-c3ocnc3C(=O)OCC)ncn1-2 (centres unmarked) [RY-069] |  |  |  |  |  | Ki (α1β3γ2 GABAA/BzR; Ki α1): 692 nM; Ki (α2β3γ2 GABAA/BzR; Ki α2): 622 nM; Ki (α3β3γ2 GABAA/BzR; Ki α3): 506 nM; Ki (α5β3γ2 GABAA/BzR; Ki α5): 19 nM; Ki (α6β3γ2 GABAA/BzR; Ki α6): 1000 nM
Cc1nnc2n1-c1ccc(Cl)cc1C(c1ccccc1)=NC2 [alprazolam, reference compound] |  |  |  |  |  | Ki (α1β3γ2 GABAA/BzR; Ki α1): 0.8 nM; Ki (α2β3γ2 GABAA/BzR; Ki α2): 0.59 nM; Ki (α3β3γ2 GABAA/BzR; Ki α3): 1.43 nM; Ki (α5β3γ2 GABAA/BzR; Ki α5): 1.54 nM; Ki (α6β3γ2 GABAA/BzR; Ki α6): 10000 nM and 1000 nM
C#Cc1ccc2c(c1)C(=O)N(C)Cc1c(C(=O)OCCCCCOC(=O)c3ncn4c3CN(C)C(=O)c3cc(C#C)ccc3-4)ncn1-2 [compound 56, 1,5-Bis(8-acetyleno-5,6-dihydro-5-methyl-6-oxo-4H-imidazo[1,5a][1,4]benzodiazepine-3-carboxy) pentyl diester] |  |  |  |  |  | Ki (α1β3γ2 GABAA/BzR; Ki α1): 231 nM; Ki (α2β3γ2 GABAA/BzR; Ki α2): 661 nM; Ki (α3β3γ2 GABAA/BzR; Ki α3): 2670 nM; Ki (α5β3γ2 GABAA/BzR; Ki α5): 5.4 nM; Ki (α6β3γ2 GABAA/BzR; Ki α6): 54.2 nM
